# ChEMBL document CHEMBL5634161, “Discovery of benzamide-based PI3K/HDAC dual inhibitors with marked pro-apoptosis activity in lymphoma cells” (Eur J Med Chem, 2023)
# Key:
# Histone deacetylase 9 = Histone deacetylase 9 (Homo sapiens, UniProt Q9UKV0); assay: Inhibition of HDAC9 (unknown origin) using Boc-Lys(acetyl)-AMC as substrate preincubated for 1 hrs followed by substrate addition and measured after 2 hrs by spectrophotometer based fluorometric assay
# [1] = Stability in human liver microsomes assessed as half-life at […] preincubated for 5 mins followed by NADPH addition and measured upto 45 mins by LC-MS/MS analysis; format: ADME, Microsome; settings: time < 50 min
# Sequence of Histone deacetylase 9 (Q9UKV0 whole entry): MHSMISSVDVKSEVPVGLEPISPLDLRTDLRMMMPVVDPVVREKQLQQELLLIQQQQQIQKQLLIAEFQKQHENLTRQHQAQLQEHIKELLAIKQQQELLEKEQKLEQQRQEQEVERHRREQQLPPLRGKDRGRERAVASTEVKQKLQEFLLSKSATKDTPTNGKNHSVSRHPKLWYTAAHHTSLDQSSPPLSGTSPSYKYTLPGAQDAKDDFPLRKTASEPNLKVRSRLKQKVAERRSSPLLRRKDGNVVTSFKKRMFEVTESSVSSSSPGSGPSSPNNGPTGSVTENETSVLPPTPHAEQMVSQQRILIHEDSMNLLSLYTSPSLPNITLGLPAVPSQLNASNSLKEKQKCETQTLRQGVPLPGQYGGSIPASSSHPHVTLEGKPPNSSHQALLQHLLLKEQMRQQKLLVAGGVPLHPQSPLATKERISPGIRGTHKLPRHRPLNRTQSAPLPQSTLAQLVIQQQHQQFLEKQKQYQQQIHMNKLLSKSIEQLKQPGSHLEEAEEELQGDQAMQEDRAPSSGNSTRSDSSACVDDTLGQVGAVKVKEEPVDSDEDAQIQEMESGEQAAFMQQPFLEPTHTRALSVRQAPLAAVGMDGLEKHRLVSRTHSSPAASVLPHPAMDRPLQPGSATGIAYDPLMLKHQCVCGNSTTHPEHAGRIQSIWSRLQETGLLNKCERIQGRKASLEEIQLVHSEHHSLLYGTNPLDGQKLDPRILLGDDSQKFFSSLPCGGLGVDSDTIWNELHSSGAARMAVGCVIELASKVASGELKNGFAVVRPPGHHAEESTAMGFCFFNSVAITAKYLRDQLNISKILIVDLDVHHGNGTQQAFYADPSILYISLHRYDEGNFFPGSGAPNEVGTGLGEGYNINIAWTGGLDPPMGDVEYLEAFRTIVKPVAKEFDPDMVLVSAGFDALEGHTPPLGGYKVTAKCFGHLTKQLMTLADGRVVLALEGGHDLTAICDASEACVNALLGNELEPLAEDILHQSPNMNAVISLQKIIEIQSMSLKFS
compound,measurement,setting,value
COc1nc(-c2ccc(NC(=O)Nc3ccc(C(=O)NCCCCCC(=O)Nc4ccccc4N)cc3)cc2)nc(N2CCOCC2)n1,IC50,Histone deacetylase 9,> 10 µM
same,half-life,[1],30.9 min
